Laboratory results taken from US20240417745A1, “SYSTEMS AND METHODS FOR SEEDLESS FRUIT TRAIT” (Duke University, priority 2023, published 2024).

Tested on: −2 DAA WT ovaries
Assay: RNA-seq of −2 DAA WT ovaries treated with 2,4-D vs mock
Type: in vivo, Tomato (Solanum lycopersicum)
Details: 100 μM 2,4-D, fold change >1.5, p<0.05
Procedure: Tomato plants were grown in greenhouse with 16 h day/8 h night light cycle as described previously (Hu et al.). Parthenocarpy test was done as described previously in Hu et al., with some modifications: −2 DAA flowers on mature tomato plants (2-6 weeks after first flowering) were emasculated and recorded fruit growth 5 weeks later; fruit diameter of at least 1 cm was considered as parthenocarpy. For fruit yield analysis, the number of flowers were counted for each young flower cluster of ˜two-month-old plants, and fruits developed on these clusters were harvested individually and weighed when they were at the red ripe stage. Whole plant phenotypes including plant height, internode numbers and length, and leaf morphology were recorded 5 weeks after sowing. For 2,4-D treatment, 10 μl of 100 μM 2,4-D, or mock solvent (5% MeOH, 0.1% Tween-20) was applied to −2 DAA ovaries of emasculated flowers. All statistical analyses were performed using Student's t-test.
Total RNAs were purified from −2 DAA ovaries of WT and 8a-1 8b-1, as well as −2 DAA WT ovaries treated with 100 μM 2,4-D for 2/6/24 h or mock treated (5% methanol, 0.1% Tween 20). RNA-Seq cDNA libraries (three biological repeats) were prepared with the QuantSeq 3′mRNA-Seq library prep kit FWD for Illumina (Lexogen). DNA sequencing was performed with Illumina Next-Seq500 High-Output 75 bp SR. Sequence alignment and DE (differential expression) analysis were done online at lexogen.bluebee.com. Heatmap was created in RStudio with plotly package. Co-regulated genes among 8a 8b and +2,4-D 2/6/24 h gene lists were then identified (fold change >1.5; p<0.1 for 8a 8b vs. WT; p<0.05 for +2,4-D vs. mock). Venn Diagrams were made using online tool at InteractiVenn.net^53. GO analysis was performed using agriGO v2 toolkit (Tian et al. agriGO v2.0: a GO analysis toolkit for the agricultural community, 2017 update. Nucleic Acids Res 45, W122-W129, (2017)). Heatmap analysis was made in R language with the plotly package. […]

## O=C(O)COc1ccc(Cl)cc1Cl [2,4-D]
2 h treatment vs mock
  number of auxin-responsive differentially expressed genes (DEG): 1731
6 h treatment vs mock
  number of auxin-responsive differentially expressed genes (DEG): 3262
24 h treatment vs mock
  number of auxin-responsive differentially expressed genes (DEG): 3212
